The text below walks through data of US20070249011A1, “Method for Screening Fungus-Specific Antimicrobial Agent and Kit Therefor” (priority 2004, published 2007).

Assay type in all cases: cell-based, Saccharomyces cerevisiae
The subject of experiment [1] is ATCC201388 [pYES2-HIK1]. The experiment in a line: Reagent sensitivity by liquid culture (doubling time), HIK1-expressing yeast. The following applies: 25 ppm reagent, liquid culture in SG/-Ura (GAL1 expression-inducing conditions), 27° C., 160 rpm, average ± standard deviation.
In experiment [2] the test system is ste11 mutant strain introducing pYES2-HIK1. Briefly: Reagent sensitivity by plate culture, ste11 mutant strain introducing pYES2-HIK1. The following applies: 25 ppm fludioxonil, 25 ppm iprodione, 50 ppm chloroneb; SG plates, 30° C., 60 hours (FIG. 7A). The source says:
(§1) A suspension of a control yeast cell introducing pYES2-HIK1 therein (uppermost rows), a suspension of a hog1 mutant strain cell introducing pYES2-HIK1 therein (second rows), a suspension of an ssk1 mutant strain cell introducing pYES2-HIK1 therein (third rows), a suspension of a ste11 mutant strain cell introducing pYES2-HIK1 therein (fourth rows), a suspension of a control yeast cell introducing pYES2 therein (fifth rows), a suspension of a hog1 mutant strain cell introducing pYES2-HIK1 therein (sixth rows), a suspension of an ssk1 mutant strain cell introducing pYES2-HIK1 therein (seventh rows), and a suspension of a ste11 mutant strain cell introducing pYES2-HIK1 therein (lowermost rows) were added (5 μl each) dropwise at 9 mm spacings (from the left, 10^7, 10^6, 10^5, and 10^4/ml) in order from the uppermost rows of plates of 90 mm in diameter containing a variety of reagents, followed by culture at 30° C. for 60 hours (or 96 hours for NaCl). […] A suspension of a hog1 mutant strain cell introducing pCLΔ-HOG1 and pYES2-HIK1 therein (uppermost rows), a suspension of a hog1 mutant strain cell introducing pCLΔ and pYES2-HIK1 therein (second rows), a suspension of an ssk1 mutant strain cell introducing pCLΔ-SSK1 and pYES2-HIK1 therein (third rows), and a suspension of an ssk1 mutant strain cell introducing pCLΔ and pYES2-HIK1 therein (lowermost rows) were added (5 μl each) dropwise at 9 mm spacings (from the left, 10 ^7, 10^6, 10^5, and 10^4/ ml) in order from the uppermost rows of plates of 90 mm in diameter containing a variety of reagents, followed by culture at 30° C. for 60 hours (or 96 hours for NaCl). The reagents were added to each SG medium so that 25 ppm fludioxonil, 25 ppm iprodione, 50 ppm chloroneb, and 0.5 M NaCl were contained in order from the second leftmost plate; and
(§2) Reagent sensitivity was analyzed by plate culture and liquid culture. In the plate culture, strains were precultured overnight in 5 ml of SD/-Ura and then collected, followed by washing with 10 ml of SG/-Ura. […]

Experiment [3] relates to pYES2-HIK1 transformant. Briefly: Reagent sensitivity by plate culture, HIK1-expressing yeast. The following applies: for concentration at which the effect was saturated / growth inhibition in the presence of the reagent: SG plates; for concentration at which the effect was saturated: GAL1 expression-inducing conditions (FIG. 5B); for growth inhibition in the presence of the reagent: GAL1 expression-inducing conditions, 30° C., 60 hours, 5-100 ppm (FIG. 5B).

The test system of experiment [4] is hog1 mutant strain introducing pYES2-HIK1. Briefly: Reagent sensitivity by plate culture, hog1 mutant strain introducing pYES2-HIK1. The following applies: 25 ppm fludioxonil, 25 ppm iprodione, 50 ppm chloroneb; SG plates, 30° C., 60 hours (FIG. 7A).
From the text: as §1, §2

Experiment [5] concerns strain introducing pYES2-hik1-H736V. The experiment in a line: Reagent sensitivity by plate culture, yeast expressing Hik1-H736V (nonfunctional histidine kinase domain). The following applies: 25 ppm fludioxonil, 25 ppm iprodione, 50 ppm chloroneb; SG plates, 30° C., 72 hours (FIG. 6B). The procedure: (§3) The reagents were added to each SG medium so that 25 ppm fludioxonil, 25 ppm iprodione, 50 ppm chloroneb, and 0.5 M NaCl were contained in order from the second leftmost plate;
(§4) Reagent sensitivity was analyzed by plate culture and liquid culture. In the plate culture, strains were precultured overnight in 5 ml of SD/-Ura and then collected, followed by washing with 10 ml of SG/-Ura. The resulting strains were cultured for 8 hours to 10 hours in 10 ml of SG/-Ura, followed by OD600 measurement. They were diluted to 10^7 cells/ml, 10^6 cells/ml, 10^5 cells/ml, and 10^4 cells/ml, and 5 μl each thereof was added dropwise onto SG/-Ura plates supplemented with a variety of reagents, and cultured for 60 hours to 240 hours. In the liquid culture, strains were precultured overnight in 5 ml of SD/-Ura and then collected, followed by washing with 10 ml of SG/-Ura. The resulting strains were cultured for 8 hours to 10 hours in 10 ml of SG/-Ura, followed by OD600 measurement. They were added at OD600=0.01 to 300-ml Erlenmeyer flasks accommodating 50 ml of SG/-Ura containing a variety of reagents. After shaking by spinning at 160 rpm and 27° C., sampling was performed after 12, 15, 18, 21, 24, 33, 36, and 39 hours, followed by OD600 measurement. A growth curve was created to calculate a doubling time.
(§5) (2) Mutagenized HIK1 was prepared with Mutan-Express Km kit (TAKARA SHUZO) using synthetic DNAs for mutagenesis (HK-H736V: 5′-[…]-3′ (SEQ ID NO: 2) and HK-D1153E: 5′-[…]-3′ (SEQ ID NO: 3)). Each mutagenized HIK1 was cloned into the BamHI site of pYES2 to prepare pYES2-hik1-H736V and […]. […]

Experiment [6] relates to ATCC201388 [pYES2]. Briefly: Reagent sensitivity by liquid culture (doubling time), vector-only control yeast. The following applies: 25 ppm reagent, liquid culture in SG/-Ura (GAL1 expression-inducing conditions), 27° C., 160 rpm, average ± standard deviation.
Experiment [7] relates to strain introducing pYES2-hik1-D1153E. The experiment in a line: Reagent sensitivity by plate culture, yeast expressing Hik1-D1153E (nonfunctional response regulator domain). The following applies: 25 ppm fludioxonil, 25 ppm iprodione, 50 ppm chloroneb; SG plates, 30° C., 72 hours (FIG. 6B). The procedure: as §3, §4, §5
Experiment [8] deals with ssk1 mutant strain introducing pYES2-HIK1. The experiment in a line: Reagent sensitivity by plate culture, ssk1 mutant strain introducing pYES2-HIK1. The following applies: 25 ppm fludioxonil, 25 ppm iprodione, 50 ppm chloroneb; SG plates, 30° C., 60 hours (FIG. 7A).
From the text: as §1, §2

For experiment [9], the system named is pYES2 transformant. Briefly: Reagent sensitivity by plate culture, vector-only control yeast.
[10] abbreviates: SG plates, GAL1 expression-inducing conditions, 30° C., 60 hours, 5-100 ppm (FIG. 5B).
Where [11] appears, read: all the strains (control, hog1, ssk1, ste11 mutant) introducing pYES2, 25 ppm fludioxonil, 25 ppm iprodione, 50 ppm chloroneb (FIG. 7A).

For the compound `N#Cc1c[nH]cc1-c1cccc2c1OC(F)(F)O2` [Fludioxonil, fludioxonil], the doubling time in experiment [1] was 4.25 ± 0.20 h; in experiment [1] (listed as fludioxonil), 4.25 h; in experiment [6], 2.25 ± 0.06 h; in [6] (listed as fludioxonil), “around 2.2 hours”. In addition, the “sensitivity to the reagent” value was “exhibited sensitivity” in [2]; “did not exhibit sensitivity” in [4]; “hardly exhibited sensitivity” in [5]; “hardly exhibited sensitivity” in experiment [7]; “did not exhibit sensitivity” in [8]; “no sensitivity” in experiment [9] (setting [10]). Further, the “sensitivity to the reagent” value in [9] (setting [11]) was “no sensitivity”. In addition, the “concentration at which the effect was saturated” value (“concentration” below) in experiment [3] came out at 5 ppm. Also, the “growth inhibition in the presence of the reagent” value (“growth inhibition in the presence” for short) in [3] is listed as “exhibited growth inhibition”.

`CC(C)NC(=O)N1CC(=O)N(c2cc(Cl)cc(Cl)c2)C1=O` [Iprodione, iprodione]: the doubling time in experiment [1] is 3.12 ± 0.10 h; in experiment [1] (listed as iprodione), 3.12 h; in experiment [6], 2.12 ± 0.06 h; in experiment [6] (listed as iprodione), “around 2.2 hours”. In addition, the “sensitivity to the reagent” value in experiment [2] is on record as “exhibited sensitivity”; in experiment [4], “did not exhibit sensitivity”; in experiment [5] it was “hardly exhibited sensitivity”; in experiment [7] it was “hardly exhibited sensitivity”; in experiment [8], “did not exhibit sensitivity”; in experiment [9] (setting [10]) it was “no sensitivity”. Further, the “sensitivity to the reagent” value in [9] (setting [11]) is “no sensitivity”. In addition, the “concentration” value in experiment [3] is listed as 25 ppm. Moreover, the “growth inhibition in the presence” value in [3] is reported as “exhibited growth inhibition”.

Take `COc1cc(Cl)c(OC)cc1Cl` [Chloroneb, chloroneb]: the doubling time in experiment [1] was 2.90 ± 0.11 h; in experiment [1] (listed as chloroneb), 2.90 h; in experiment [6], 2.17 ± 0.08 h; in [6] (listed as chloroneb), “around 2.2 hours”. Moreover, the “sensitivity to the reagent” value in experiment [2] is given as “exhibited sensitivity”; in [4] it was “did not exhibit sensitivity”; in experiment [5], “hardly exhibited sensitivity”; in experiment [7] it was “hardly exhibited sensitivity”; in experiment [8], “did not exhibit sensitivity”; in experiment [9] (setting [10]) it was “no sensitivity”. Further, in experiment [9] (setting [11]), the “sensitivity to the reagent” value was “no sensitivity”. In experiment [3], the “concentration” value worked out at 50 ppm. Also, in experiment [3], the “growth inhibition in the presence” value is on record as “exhibited growth inhibition”.

As for `C[C@@H]1C[C@@H]([C@H](O)CC2CC(=O)NC(=O)C2)C(=O)[C@@H](C)C1` [cycloheximide], in experiment [3] (expression-inducing conditions, 0.25 ppm, cultured for 240 hours (FIG. 5B)), the “difference in sensitivity between the pYES2-HIK1 transformant and the pYES2 transformant” value is given as “No difference in sensitivity”.
